Measurements from ChEMBL document CHEMBL6087386, “Radioprotective effectiveness of a novel delta-tocotrienol prodrug on mouse hematopoietic system against 60Co gamma-ray irradiation through inducing granulocyte-colony stimulating factor production” (Eur J Med Chem, 2024).
Calls of active or inactive are those of the source. The rule behind the calls is not given here.

Experiments:
Mus musculus [1] = assay: Radioprotective activity in C57BL/6J mouse assessed as increase in percentage of LSK cells at 100 mg/kg, sc preincubated with compound for 24 hrs followed by total body irradiation with 6.5 Gy and measured after 30 days; type: functional, organism-based; details: time 31.0 day
[2] = Tmax in ICR mouse at 100 mg/kg, iv measured upto 24 hrs by LC-MS/MS analysis; type: ADME, organism-based; details: in vivo
[3] = Tmax in ICR mouse at 100 mg/kg, sc measured upto 24 hrs by LC-MS/MS analysis; type: ADME, organism-based; details: in vivo
Mus musculus [4] = assay: Radioprotective activity in C57BL/6J mouse assessed as increase in multipotent progenitor frequency in LSK compartment at 100 mg/kg, sc preincubated with compound for 24 hrs followed by total body irradiation with 6.5 Gy and measured after 30 days; type: functional, organism-based; details: time 31.0 day
[5] = Cmax in ICR mouse at 100 mg/kg, iv measured upto 24 hrs by LC-MS/MS analysis; type: ADME, organism-based; details: in vivo
Mus musculus [6] = assay: Radioprotective activity in C57BL/6J mouse assessed as effect on splenic LT-HSCs number at 100 mg/kg, sc preincubated with compound for 24 hrs followed by total body irradiation with 6.5 Gy and measured after 10 days; type: functional, organism-based; details: time 11.0 day
[7] = MRT (0 to infinity) in ICR mouse at 100 mg/kg, iv measured upto 24 hrs by LC-MS/MS analysis; type: ADME, organism-based; details: in vivo
Mus musculus [8] = assay: Radioprotective activity in C57BL/6J mouse assessed as increase in MPP number at 100 mg/kg, sc preincubated with compound for 24 hrs followed by total body irradiation with 6.5 Gy and measured after 30 days; type: functional, organism-based; details: time 31.0 day
Mus musculus [9] = assay: Radioprotective activity in C57BL/6J mouse assessed as increase in percentage of LK cells at 100 mg/kg, sc preincubated with compound for 24 hrs followed by total body irradiation with 6.5 Gy and measured after 30 days; type: functional, organism-based; details: time 31.0 day
[10] = MRT (0 to t) in ICR mouse at 100 mg/kg, iv measured upto 24 hrs by LC-MS/MS analysis; type: ADME, organism-based; details: in vivo
Mus musculus [11] = assay: Radioprotective activity in C57BL/6J mouse assessed as increase in neutrophils at 100 mg/kg, sc preincubated with compound for 24 hrs followed by total body irradiation with 6.5 Gy and measured after 30 days; type: functional, organism-based; details: time 31.0 day
[12] = Clearance in ICR mouse at 100 mg/kg, iv measured upto 24 hrs by LC-MS/MS analysis; type: ADME, organism-based; details: in vivo
[13] = Bioavailability in ICR mouse at 100 mg/kg, sc measured upto 24 hrs by LC-MS/MS analysis; type: ADME, organism-based; details: in vivo
[14] = Stability in C57BL/6J mouse whole blood assessed as half-life; type: ADME, tissue-based
Mus musculus [15] = assay: Radioprotective activity in C57BL/6J mouse assessed as increase in WBC count at 100 mg/kg, sc preincubated with compound for 24 hrs followed by total body irradiation with 6.5 Gy and measured after 30 days; type: functional, organism-based; details: time 31.0 day
[16] = Stability in […] human plasma assessed as half-life; type: ADME, cell-free
Mus musculus [17] = assay: Radioprotective activity in C57BL/6J mouse assessed as increase in platelets count at 100 mg/kg, sc preincubated with compound for 24 hrs followed by total body irradiation with 6.5 Gy and measured after 30 days; type: functional, organism-based; details: time 31.0 day
Mus musculus [18] = assay: Radioprotective activity in C57BL/6J mouse assessed as increase in platelet count at 100 mg/kg, sc preincubated with compound for 24 hrs followed by total body irradiation with 6.5 Gy and measured on day 10; type: functional, organism-based; details: time 11.0 day
Mus musculus [19] = assay: Radioprotective activity in C57BL/6J mouse assessed as increase in RBC count at 100 mg/kg, sc preincubated with compound for 24 hrs followed by total body irradiation with 6.5 Gy and measured on day 14; type: functional, organism-based; details: time 15.0 day
Mus musculus [20] = assay: Radioprotective activity in C57BL/6J mouse assessed as survival rate at 100 mg/kg, sc preincubated with compound for 24 hrs followed by total body irradiation with 9.5 Gy and measured after 30 days by Kaplan-meier plot analysis; type: functional; details: light or radiation study, 744 h, time 31 day
Mus musculus [21] = assay: Radioprotective activity in C57BL/6J mouse assessed as increase in G-CSF production in serum at 100 mg/kg, sc measured for 6 to 24 hrs; type: functional, organism-based; details: time 6-24 hrs
Mus musculus [22] = assay: Radioprotective activity in C57BL/6J mouse assessed as […] in survival rate at 100 mg/kg, sc preincubated with compound for 24 hrs followed by total body irradiation with 9.5 Gy and measured after 30 days by Kaplan-meier plot analysis; type: functional, organism-based; details: time 31.0 day
Mus musculus [23] = assay: Radioprotective activity in C57BL/6J mouse assessed as survival rate at 100 mg/kg, sc preincubated with compound for 24 hrs followed by total body irradiation with 8.5 Gy and measured after 20 days by Kaplan-meier plot analysis; type: functional; details: light or radiation study, 504 h, time 21 day
[24] = MRT (0 to t) in ICR mouse at 100 mg/kg, sc measured upto 24 hrs by LC-MS/MS analysis; type: ADME, organism-based; details: in vivo
[25] = Cmax in ICR mouse at 100 mg/kg, sc measured upto 24 hrs by LC-MS/MS analysis; type: ADME, organism-based; details: in vivo
Mus musculus [26] = assay: Radioprotective activity in C57BL/6J mouse assessed as increase in spleen coefficient at 100 mg/kg, sc preincubated with compound for 24 hrs followed by total body irradiation with 6.5 Gy and measured after 10 days; type: functional, organism-based; details: time 11.0 day
Mus musculus [27] = assay: Radioprotective activity in C57BL/6J mouse assessed as increase in G-CSF production in serum at 100 mg/kg, sc measured for 72 hrs; type: functional, organism-based
Mus musculus [28] = assay: Radioprotective activity in C57BL/6J mouse assessed as fold increase in total number of splenic nucleated cells at 100 mg/kg, sc preincubated with compound for 24 hrs followed by total body irradiation with 6.5 Gy and measured after 10 days; type: functional; details: time 11 day
Mus musculus [29] = assay: Radioprotective activity in C57BL/6J mouse assessed as increase in RBC count at 100 mg/kg, sc preincubated with compound for 24 hrs followed by total body irradiation with 6.5 Gy and measured after 30 days; type: functional, organism-based; details: time 31.0 day
Mus musculus [30] = assay: Radioprotective activity in C57BL/6J mouse assessed as survival rate at 100 mg/kg, sc preincubated with compound for 24 hrs followed by total body irradiation with 8.5 Gy and measured after 30 days by Kaplan-meier plot analysis; type: functional; details: time 31 day
[31] = Half life in ICR mouse at 100 mg/kg, iv measured upto 24 hrs by LC-MS/MS analysis; type: ADME, organism-based; details: in vivo
Mus musculus [32] = assay: Radioprotective activity in C57BL/6J mouse assessed as splenomegaly at 100 mg/kg, sc preincubated with compound for 24 hrs followed by total body irradiation with 6.5 Gy and measured after 10 days; type: functional, organism-based; details: time 11.0 day
Mus musculus [33] = assay: Radioprotective activity in C57BL/6J mouse assessed as increase in G-CSF production in serum at 100 mg/kg, sc; type: functional, organism-based; details: time 24.0 hrs
Mus musculus [34] = assay: Induction of G-CSF production in C57BL/6J mouse model at 100 mg/kg, sc measured for 24 hrs by ELISA analysis; type: functional, organism-based
Mus musculus [35] = assay: Radioprotective activity in C57BL/6J mouse assessed as increase in long term hematopoietic stem cell frequency in LSK compartment at 100 mg/kg, sc preincubated with compound for 24 hrs followed by total body irradiation with 6.5 Gy and measured after 30 days; type: functional, organism-based; details: time 31.0 day
Mus musculus [36] = assay: Radioprotective activity in C57BL/6J mouse assessed as increase in number of total bone marrow cells at 100 mg/kg, sc preincubated with compound for 24 hrs followed by total body irradiation with 6.5 Gy and measured after 30 days; type: functional, organism-based; details: time 31.0 day
[37] = Drug concentration in C57BL/6J mouse plasma at 100 mg/kg, sc measured after 24 hrs; type: ADME, organism-based; details: in vivo
Mus musculus [38] = assay: Radioprotective activity in C57BL/6J mouse assessed as increase in ST-HSC number at 100 mg/kg, sc preincubated with compound for 24 hrs followed by total body irradiation with 6.5 Gy and measured after 30 days; type: functional, organism-based; details: time 31.0 day
[39] = Stability in C57BL/6J mouse plasma assessed as half-life; type: ADME, cell-free
[40] = Volume of distribution at steady state in ICR mouse at 100 mg/kg, iv measured upto 24 hrs by LC-MS/MS analysis; type: ADME, organism-based; details: in vivo
Mus musculus [41] = assay: Radioprotective activity in C57BL/6J mouse assessed as effect on LT-HSC number at 100 mg/kg, sc preincubated with compound for 24 hrs followed by total body irradiation with 6.5 Gy and measured after 30 days; type: functional, organism-based; details: time 31.0 day
Mus musculus [42] = assay: Radioprotective activity in C57BL/6J mouse assessed as increase in neutrophils at 100 mg/kg, sc preincubated with compound for 24 hrs followed by total body irradiation with 6.5 Gy and measured on day 7; type: functional, organism-based; details: time 8.0 day
Mus musculus [43] = assay: Radioprotective activity in C57BL/6J mouse assessed as increase in number of LK cells at 100 mg/kg, sc preincubated with compound for 24 hrs followed by total body irradiation with 6.5 Gy and measured after 30 days; type: functional, organism-based; details: time 31.0 day
Mus musculus [44] = assay: Radioprotective activity in C57BL/6J mouse assessed as increase in number of LSK cells at 100 mg/kg, sc preincubated with compound for 24 hrs followed by total body irradiation with 6.5 Gy and measured after 30 days; type: functional, organism-based; details: time 31.0 day

## CC(C)=CCC/C(C)=C/CC/C(C)=C/CC[C@]1(C)CCc2cc(OC(=O)CCC(=O)O)cc(C)c2O1
Mus musculus [1]
  Activity: Active
[2]
  Tmax: 0.083 h
[3]
  Tmax: 0.083 h
Mus musculus [4]
  Activity: Active
[5]
  Cmax: 5.15 ng/mL
Mus musculus [6]
  Activity: Active
[7]; iv, 100 mg/kg, 24 h
  MRT: 3.47 h
Mus musculus [8]
  Activity: Active
Mus musculus [9]
  Activity: Active
[10]
  MRT last at 24 h: 1.36 h
Mus musculus [11]
  Activity: Active
[12]
  CL: 3.7553 mL/min/kg
[13]
  F: 13.86%
[14]
  half-life: 9.3 min
Mus musculus [15]
  Activity: Active
[16]
  half-life: 1.92 h
Mus musculus [17]
  Activity: Active
Mus musculus [18]
  Activity: Active
Mus musculus [19]
  Activity: Active
Mus musculus [20]
  survival at 100 mg/kg: 90%
Mus musculus [21]
  Activity: Active
Mus musculus [22]
  Activity: inactive
Mus musculus [23]
  survival at 100 mg/kg: 70%
[24]
  MRT last at 24 h: 11.9 h
[25]
  Cmax: 2.02 ng/mL
Mus musculus [26]
  Activity: Active
Mus musculus [27]
  Activity: Active
Mus musculus [28]
  fold change (FC): ~2.5
Mus musculus [29]
  Activity: Active
Mus musculus [30]; Mus musculus, C57BL/6J, light or radiation study, 744 h
  survival at 100 mg/kg: 90%
[31]
  half-life: 10.4 h
Mus musculus [32]
  Activity: Active
Mus musculus [33]
  Activity: Time-dependent-effect
Mus musculus [34]
  Activity: Active
Mus musculus [35]
  Activity: Active
Mus musculus [36]
  Activity: Active
[37]
  Drug uptake: Active
Mus musculus [38]
  Activity: Active
[39]
  half-life: 3.73 h
[40]; iv, 100 mg/kg, 24 h
  Vdss: 0.33658 L/kg
Mus musculus [41]
  Activity: inactive
Mus musculus [42]
  Activity: Active

## CC(C)=CCC/C(C)=C/CC/C(C)=C/CC[C@]1(C)CCc2cc(OCCO)cc(C)c2O1
[2]
  Tmax: 17.3 h
[3]
  Tmax: 0.67 h
Mus musculus [4]
  Activity: Active
[5]
  Cmax: 8.15 ng/mL
[7]; ICR
  MRT inf: 0.92 h
[10]
  MRT last at 24 h: 0.67 h
Mus musculus [11]
  Activity: Active
[12]
  CL: 6.3815 mL/min/kg
[13]
  F: 8.3%
Mus musculus [15]
  Activity: Active
Mus musculus [43]
  Activity: Active
Mus musculus [17]
  Activity: Active
Mus musculus [18]
  Activity: Active
Mus musculus [19]
  Activity: Active
Mus musculus [44]
  Activity: Active
Mus musculus [23]
  survival at 100 mg/kg: 70%
[24]
  MRT last at 24 h: 12 h
[25]
  Cmax: 1.14 ng/mL
Mus musculus [26]
  Activity: Active
Mus musculus [29]
  Activity: Active
Mus musculus [30]
  Activity: 100%
[31]
  half-life: 7.56 h
Mus musculus [32]
  Activity: Active
Mus musculus [34]
  Activity: Active
Mus musculus [35]
  Activity: Active
Mus musculus [36]
  Activity: Active
[40]; ICR, read-out: Vdss
  Vd: 0.351 L/kg
Mus musculus [42]
  Activity: Active
